Experimental data reported in US20250188457A1, “COMPOSITIONS AND METHODS FOR THE TREATMENT OF GLIOBLASTOMA BY INHIBITION OF THE TFPI2-CD51-STAT6 SIGNALING AXIS” (Northwestern University, priority 2023, published 2025).

Experiments:
Details in all cases: TFPI2 recombinant protein 20 ng/ml; AS1517499 25 nM
HMC3 microglia = assay: Incucyte live-cell and scratch wound healing migration of microglia; assay type: cell-based, human
Procedure: The scratch-wound assay was performed (Ref. 74; incorporated by reference in its entirety). For tracking single cell movement, microglia were cultured in 96-well plates (Corning, #3599) with different treatments. Incucyte Live Cell Analysis System was used to record cell movement over time. The time-lapse images were reconstructed and analyzed using TrackMate (Refs. 75-76; incorporated by reference in its entirety). The speed of each individual cell was calculated by processing images with LoG detector and Linear Assignment Problem (LAP) tracker.

[1] = tested on: mouse primary CD8+ T cells cocultured with SIM-A9 microglia; assay: Mouse microglia and CD8+ T cell co-culture, flow cytometry; assay type: cell-based
Procedure: Primary mouse CD8^+ T cells were isolated from the spleens of C57BL/6 mice using a CD8^+ T cell isolation kit (Miltenyi Biotec, #130-104-075) according to manufacturer's instructions. Isolated CD8^+ T cells were cultured in RPMI 1640 media (Gibco, #22400-089) containing 10% FBS, 50 μM 2-Mercaptoethanol (Sigma, #M7522), and 1:100 antibiotic-antimycotic. Then, primary mouse CD8^+ T cells were expanded by 30 U/ml mouse IL-2 (Miltenyi Biotec, #130-120-662) and activated by Dynabeads® mouse T-activator CD3/CD28 (Gibco, #11456D) at bead-to-cell ratio of 1:1 before analysis and co-culture studies. For membrane protein staining, the single-cell suspensions were washed with PBS and then incubated with fixable viability dye (Invitrogen, #5211229035) on ice for 10 min. Following washing with PBS, cells were incubated with the anti-CD16/CD32 cocktail (BioLegend, #103132) in 2% BSA PBS to block Fc receptors for 30 min on ice. […] Samples were read in BD FACSymphony flow cytometer and analyzed in FlowJo v10.8.1. […] Then cell suspensions were rewashed in permeabilization buffer and read in BD FACSymphony flow cytometer.

[2] = tested on: CT2A cells and GSC272 cells; assay: T cell-mediated cytotoxicity assay (LDH release); assay type: cell-based, human and mouse
Procedure: T cell-mediated cytotoxicity was determined by Cytotox96 non-radioactive cytotoxicity assay kit (Promega, #G1780) based on the release of lactate dehydrogenase (LDH). After expansion and activation, mouse primary CD8^+ T cells or human JURKAT T cells were collected. About 10^5 T cells were co-cultured with SIM-A9 microglia or PrhMG (1:1 ratio) treated with TFPI2 recombinant protein in the presence or absence of STAT6 inhibitor AS1517499 for 24 hrs. T cells (effector cells) were then collected for further co-culturing with CT2A cells or GSC272 cells (target cells) at different ratios (10000:1000, 5000:1000, 2500:1000, 1250:1000, 620:1000, 310:1000, 160:1000, 80:1000, 40:1000, 20:1000) for 5 hrs. Experimental groups and corresponding control groups, including effector cell spontaneous LDH release, target cell spontaneous LDH release, target cell maximum LDH release, volume correction control, and culture medium background control were set up following the manufacturer's instructions to evaluate T cell-mediated cytotoxicity on GSCs. Optical density (OD) was measured by a Biotek Synergy 2 SL Microplate Reader. The cytotoxicity was calculated by the formula: (experimental OD value-effector spontaneous OD value-target spontaneous OD value)/(target maximum OD value-target spontaneous OD value).

NC(=O)c1cnc(NCCc2ccc(O)c(Cl)c2)nc1NCc1ccccc1 [AS1517499]
TFPI2-induced HMC3 microglia migration, incucyte live-cell and scratch assays (HMC3 microglia): impairment
decrease of CD8+ T cell viability by TFPI2-polarized microglia [1]: negated
reduction of the percentage of CD8+CD69+ and CD8+IFNγ+ T cells by TFPI2-treated microglia [1]: prevented
suppression of T cell-mediated tumor cell cytotoxicity by TFPI2-polarized microglia [2]: rescued
